Results: patent US20250163072A1, “MACROCYCLIC COMPOUNDS FOR THE TREATMENT OF CANCER” (Hoffmann-La Roche Inc., priority 2021, published 2025)

Columns and labels:
[1] = GSH reaction rates (inherent GSH reactivity); type: in vitro ADME
Procedure: Therefore Strategy to minimize the GSH metabolism is very critical. Short T1/2 in inherent GSH reaction indicated high GSH reaction rate. Thus T1/2 in inherent GSH reaction assay was determined for the screening of candidates. Reference compounds and compounds of this invention potentially could form conjugation with GSH either through halogenated moieties substitution reaction or direct Michael addition reaction. This test was therefore performed to check GSH reactivity of listed compounds. For inherent GSH reactivity determination, compounds at 1 μM were incubated at 37° C. with and without 5 mM GSH for 0, 0.5, 1, 2, 4 and 6 h in 100 mM potassium phosphate buffer at pH 7.4. At the end of the designated time points, samples were quenched with acetonitrile containing 10 mM N-ethylmaleimide and an internal standard. Quenched samples were centrifuged, and supernatants were analyzed by LC-MS/MS for compound quantification.

[2] = tested on: KRAS G12C in NCI-H358 cells; experiment: pERK inhibition assay, NCI-H358; type: cell-based, human; settings: Homo sapiens, 4 hours incubation
Procedure: (§1) This assay is to measure the ability of test compounds in inhibiting the phosphorylation of ERK, the downstream signaling of KRAS G12C in NCI-H358 cells, KRAS G12D in AGS cells, and KRAS G12V in SW620. NCI-H358 (ATCC-CRL5807) cells, AGS (ATCC-CRL-1739) cells, SW620 (ATCC-CCL-227) cells were all grown and maintained using RPMI-1640 medium (Thermo Fisher Scientific) with 10% fetal bovine serum and 1% penicillin/streptomycin. On the day prior to compound addition, cells were plated in tissue culture-treated 96 well plates (Corning-3699) at a density of 30,000 cell/well, 20,000 cell/well, 30,000 cell/well for NCI-H358, AGS and SW620 respectively, and allowed for attachment overnight. Diluted compounds were then added in a final concentration of 0.5% DMSO. After 4 hours of incubation, the medium was removed, 100 μL of 4% formaldehyde was added, and the assay plates were incubated at room temperature for 20 minutes. The plates were then washed once with phosphate buffered saline (PBS), and permeabilized with 100 μL of chilled methanol for 10 minutes. Non-specific antibody binding to the plates was blocked using 50 μL 1×BSA blocking buffer (Thermo-37520, 10-fold dilution by Phosphate-Buffered Saline Tween (PBST) for at least 1 hour at room temperature. The amount of phosphor-ERK was determined using an antibody specific for phosphorylated form of ERK. Primary antibody (pERK, CST-4370, Cell Signaling Technology) was diluted 1:300 in blocking buffer, with 50 μL aliquoted to each well, and incubated overnight at 4° C. Cells were washed five times for 5 minutes with PBST. Secondary antibody (HRP-linked anti-rabbit IgG, CST-7074, Cell Signaling Technology) was diluted 1:1000 in blocking buffer, and 50 μL was added to each well and incubated 1-2 hours at room temperature. Cells were washed 5 times for 5 minutes with PBST, 100 μL TMB ELISA substrate (abcam-ab171523) were added and gently shake for 20 minutes. 50 μL stop solution (abcam-ab171529) were added, and then read the signal (OD450) by EnVision. IC50 was determined by fitting a 4-parameter sigmoidal concentration response model.

KRAS G12D in AGS cells = experiment: pERK inhibition assay, AGS; type: cell-based, human; settings: Homo sapiens, 4 hours incubation
Procedure: as §1

KRAS G12V in SW620 = experiment: pERK inhibition assay, SW620; type: cell-based, human; settings: Homo sapiens, SW-620, SW620 cells, 4 hours incubation
Procedure: as §1

NCI-H358 cells = experiment: Cell viability assay, NCI-H358; type: cell-based, human; settings: Homo sapiens, NCI-H358, 72 hours, Cell Counting Kit-8, read-out: G12C IC50
Procedure: (§2) The purpose of this cellular assay was to determine the effects of test compounds on the proliferation of human cancer cell lines NCI-H358 (ATCC-CRL5807) cells, AGS (ATCC-CRL-1739) cells, SW620 (ATCC-CCL-227) over a 3-day treatment period by quantifying the amount of NADPH present at endpoint using Cell Counting Kit-8. Cells were seeded at 5,000 cells/well (NCI-H358), 2,000 cells/well (AGS) 2,000 cells/well (SW620) in 96-well assay plates (Corning-3699) and incubated overnight. On the day of the assay, diluted compounds were then added in a final concentration of 0.5% DMSO. After 72 hours incubation, a tenth of the volume of cell counting kit 8(Dnjindo-CK04) was added into each well. Read the signal (OD450 minus OD650) using EnVision after 2 hours incubation. IC50 was determined by fitting a 4-parameter sigmoidal concentration response model.

AGS cells = experiment: Cell viability assay, AGS; type: cell-based, human; settings: Homo sapiens, 72 hours, Cell Counting Kit-8, read-out: G12D IC50
Procedure: as §2

SW620 cells = experiment: Cell viability assay, SW620; type: cell-based, human; settings: Homo sapiens, SW-620, SW620, 72 hours, Cell Counting Kit-8, read-out: G12V IC50
Procedure: as §2

[3] = Human hepatocytes stability assay; type: in vitro ADME; settings: for CL_hep (Human): 1 μM compound, human hepatocytes 1×10^6 cells/mL; for Clearance Category: human hepatocytes
Procedure: The hepatocyte stability assay measures the rate of disappearance of a compound from incubations with cryopreserved suspension hepatocytes from human. Positive controls, including Midazolam, Raloxifene and Dextromethorphan, are included in every experiment. Incubations consist of 1 μM tested compound and suspension of human hepatocytes (1×10^6 cells/mL) in supplemented Williams' E Medium with […] and 0.5% Penicillin-streptomycin. The hepatocyte suspension was incubated with intermittent shaking 900 rpm at 37° C., in a 5% CO2 incubator. The reaction was stopped by adding methanol containing internal standard (2 μM Tolbutamide) at 2, 10, 20, 40, 60 and 120 minutes after compound addition, depletion of the parent compound was monitored by LC-MS/MS analysis.

SMILES	Remaining at 6 hr in GSH (%) ([1]; 6 h, 1 μM, pH 7.4)	IC50 [2] [nM]	IC50 (KRAS G12D in AGS cells) [nM]	IC50 (KRAS G12V in SW620) [nM]	IC50 (NCI-H358 cells) [nM]	IC50 (AGS cells) [nM]	IC50 (SW620 cells) [nM]	CL_hep (Human) [3] [mL/min/kg]	Clearance Category [3]	Remaining at 6 hr in GSH (%) ([1]; 1 μM compound, 5 mM GSH, 37° C., pH 7.4, 6 hr)	T1/2(hour) in GSH ([1]; 1 μM compound, 5 mM GSH, 37° C., potassium phosphate buffer pH 7.4)
CCn1c(-c2cccnc2COC)c2c3cc(ccc31)-c1cc(O)cc(c1)C[C@H](NC(=O)[C@H](C(C)C)N(C)C(=O)C1CN(C(=O)[C@H](F)Cl)C1)C(=O)N1CCC[C@H](N1)C(=O)OCC(C)(C)C2 [RM461-A]	100	49	> 10000	7020	45	7920	6880	5.5	low (CL_hep (mL/min/kg)<6.96 is low clearance)	–	–
C#CC1(F)CCN(C(=O)N(C)[C@H](C(=O)N[C@H]2Cc3cc(O)cc(c3)-c3ccc4c(c3)c(c(-c3cccnc3[C@H](C)OC)n4CC)CC(C)(C)COC(=O)[C@@H]3CCCN(N3)C2=O)C(C)C)CC1 (atropisomer, axis not shown; (M)) [Example 16, N-[(1S)-1-[[(8S,14S)-22-ethyl-4-hydroxy-(21M)-21-[2-[(1S)-1-methoxyethyl]-3-pyridyl]-18,18-dimethyl-9,15-dioxo-16-oxa-10,22,28-triazapentacyclo[18.5.2.12,6.110,14.023,27]nonacosa-1(26),2,4,6(29),20,23(27),24-heptaen-8-yl]carbamoyl]-2-methyl-propyl]-4-ethynyl-4-fluoro-N-methyl-piperidine-1-carboxamide]	–	43	528	78	77	1170	294	–	–	–	–
CCn1c(-c2cccnc2[C@H](C)OC)c2c3cc(ccc31)-c1cc(O)cc(c1)C[C@H](NC(=O)[C@H](C(C)C)N(C)C(=O)[C@H]1CCN(C(=O)C(C)=O)C1)C(=O)N1CCC[C@H](N1)C(=O)OCC(C)(C)C2 (atropisomer, axis not shown; (M)) [Example 5, (3S)-N-[(1S)-1-[[(8S,14S)-22-ethyl-4-hydroxy-(21M)-21-[2-[(1S)-1-methoxyethyl]-3-pyridyl]-18,18-dimethyl-9,15-dioxo-16-oxa-10,22,28-triazapentacyclo[18.5.2.12,6.110,14.023,27]nonacosa-1(26),2,4,6(29),20,23(27),24-heptaen-8-yl]carbamoyl]-2-methyl-propyl]-N-methyl-1-(2-oxopropanoyl)pyrrolidine-3-carboxamide]	–	8	105	26	77	226	57	–	–	–	–
CO[C@@H](C)c1ncccc1-c1c2c3cc(ccc3n1CC(F)(F)F)-c1csc(n1)C[C@H](NC(=O)[C@H](C(C)C)N(C)C(=O)[C@H]1CCN(C(=O)[C@H](F)Cl)C1)C(=O)N1CCC[C@H](N1)C(=O)OCC(C)(C)C2 (atropisomer, axis not shown; (M)) [Example 22, (3S)-1-[(2R)-2-chloro-2-fluoro-acetyl]-N-[(1S)-1-[[(7S,13S)-(20M)-20-[2-[(1S)-1-methoxyethyl]-3-pyridyl]-17,17-dimethyl-8,14-dioxo-21-(2,2,2-trifluoroethyl)-15-oxa-4-thia-9,21,27,28-tetrazapentacyclo[17.5.2.12,5.19,13.022,26]octacosa-1(25),2,5(28),19,22(26),23-hexaen-7-yl]carbamoyl]-2-methyl-propyl]-N-methyl-pyrrolidine-3-carboxamide]	–	55	199	102	16.3	868	255	–	–	–	–
CO[C@@H](C)c1ncc(N2CCN(C)CC2)cc1-c1c2c3cc(ccc3n1CC(F)(F)F)-c1csc(n1)C[C@H](NC(=O)[C@H](C(C)C)N1CC[C@]3(CCN(C(=O)[C@H](F)Cl)C3)C1=O)C(=O)N1CCC[C@H](N1)C(=O)OCC(C)(C)C2 [Example 23, (2S)-2-[(5S)-7-[(2R)-2-chloro-2-fluoro-acetyl]-1-oxo-2,7-diazaspiro[4.4]nonan-2-yl]-N-[(7S,13S)-(20M)-20-[2-[(1S)-1-methoxyethyl]-5-(4-methylpiperazin-1-yl)-3-pyridyl]-17,17-dimethyl-8,14-dioxo-21-(2,2,2-trifluoroethyl)-15-oxa-4-thia-9,21,27,28-tetrazapentacyclo[17.5.2.12,5.19,13.022,26]octacosa-1(25),2,5(28),19,22(26),23-hexaen-7-yl]-3-methyl-butanamide]	–	2	18	8	< 0.6	3410	15	7.9	medium (16.24<CL_hep (mL/min/kg)>6.96 is medium clearance)	95	stable (If % depletion after 6 hour incubation is less than 20%, compounds were reported as stable)
CCn1c(-c2cccnc2[C@H](C)OC)c2c3cc(ccc31)-c1cc(O)cc(c1)C[C@H](NC(=O)[C@H](C(C)C)N(C)C(=O)C1CCN(C(=O)C#CCN3CCOCC3)C1)C(=O)N1CCC[C@H](N1)C(=O)OCC(C)(C)C2 (stereo partly shown) [RM018, reference compound]	–	8	> 10000	> 1000	4	> 10000	> 1000	–	–	–	–
C#CC1CCN(C(=O)N(C)[C@H](C(=O)N[C@H]2Cc3cc(O)cc(c3)-c3ccc4c(c3)c(c(-c3cccnc3[C@H](C)OC)n4CC)CC(C)(C)COC(=O)[C@@H]3CCCN(N3)C2=O)C(C)C)CC1 (atropisomer, axis not shown; (M)) [Example 15, N-[(1S)-1-[[(8S,14S)-22-ethyl-4-hydroxy-(21M)-21-[2-[(1S)-1-methoxyethyl]-3-pyridyl]-18,18-dimethyl-9,15-dioxo-16-oxa-10,22,28-triazapentacyclo[18.5.2.12,6.110,14.023,27]nonacosa-1(26),2,4,6(29),20,23(27),24-heptaen-8-yl]carbamoyl]-2-methyl-propyl]-4-ethynyl-N-methyl-piperidine-1-carboxamide]	–	32	291	67	89	1240	281	–	–	–	–
